Test in all cases: NCI anticancer screen, dose series, 48 h
The test system of experiment [1] is SK-OV-3 ovarian.
The subject of experiment [2] is OVCAR-8 ovarian.
Experiment [3] concerns U251 CNS.
In experiment [4] the test system is SNB-19 CNS.
For experiment [5], the system named is SNB-75 CNS.
In experiment [6] the test system is IGROV1 ovarian.
In experiment [7] the test system is NCI/ADR-RES ovarian.
Experiment [8] deals with OVCAR-5 ovarian.
Experiment [9] has as its system A549 NSCLC.
In experiment [10] the test system is NCI-H522 lung.

SMILES strings stand for the structures.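 48-hour exposure; five concentrations; linearly interpolated endpoints. Abbreviation: GI50, concentration required for 50% inhibition of growth. TGI: concentration producing complete growth inhibition.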 Some results are limits rather than exact numbers.

Turning to `CC(=O)Nc1ccc2c(c1)CN1C(=O)c3ccccc3C1=N2`, the GI50 in experiment [1], in [2], in experiment [3], in experiment [4], in [5] and in [6] was over 100 µM throughout. Further, the GI50 in experiment [7], in experiment [8] and in experiment [9] was over 100 µM each time. For the same compound, the TGI in [1], in experiment [2], in [3], in experiment [4], in experiment [5] and in experiment [6] was over 100 µM each time. The TGI in [7], in experiment [8] and in experiment [9] was over 100 µM throughout.
As to `COc1ccc(C2NC(=S)NC3=C2COc2ccc(F)cc23)cc1OC` (centres undefined), the GI50 in experiment [1] was 71.2 µM; in experiment [2] it was 19.4 µM; in [3], 12.7 µM; in experiment [4] it was 46.7 µM; in experiment [6] it was 29.8 µM; in [10] it was 49.2 µM. In addition, the GI50 in experiment [7] is 18.9 µM; in [8], 18.6 µM; in experiment [9] it was 10.9 µM. Moreover, the TGI in experiment [1] is over 100 µM; in experiment [2], 60.9 µM; in experiment [3] it was 29.5 µM; in experiment [4], over 100 µM; in experiment [6], over 100 µM; in experiment [10], over 100 µM. For the same compound, the TGI in experiment [7] amounted to 44.4 µM; in experiment [8], 48.1 µM; in [9] it was 36.7 µM.
Turning to `CN1CCN(CCCOc2ccc3ncnc(Nc4ccc(Oc5cccc(F)c5)c(Cl)c4)c3c2)CC1`, the GI50 was 2.19 µM in [2]; 1.56 µM in [3]; 1.64 µM in experiment [4]; 1.4 µM in experiment [5]; 0.711 µM in [6]; 1.23 µM in experiment [10]. Further, the GI50 in [7] is 1.83 µM; in experiment [8], 1.67 µM; in [9], 1.56 µM. Moreover, the TGI in [2] worked out at 6.42 µM; in [3], 3.29 µM; in experiment [4], 3.16 µM; in experiment [5], 2.75 µM; in experiment [6], 2.23 µM; in [10], 3.14 µM. Further, the TGI was 4.79 µM in [7], 3.29 µM in [8] and 3.24 µM in experiment [9].
As to `O=C1Nc2ccc(Br)cc2C1=Nc1ccc(Cl)cc1`, the TGI is over 100 µM in experiment [1]; 26.7 µM in experiment [2]; 88.8 µM in [3]; 97 µM in experiment [4]; 24.6 µM in experiment [10]; 62.3 µM in experiment [7]. The TGI in experiment [8] is 39.8 µM; in experiment [9], over 100 µM.
Take `O=c1c2ccccc2c(=O)c2c1sc1c(=O)c3ccc(O)cc3c(=O)c12`: the GI50 in [1] was 1.38 µM; in experiment [2], 1.78 µM; in experiment [3], 1.01 µM; in experiment [4], 0.342 µM; in experiment [5], 0.183 µM; in [6], 2.1 µM. Moreover, the figures for the GI50 in [7], in experiment [8] and in [9] were 1.45 µM, 1.74 µM and 0.222 µM, respectively. Also, the TGI in [1] came to 2.91 µM; in [2], 8.31 µM; in experiment [3] it was 2.39 µM; in experiment [4] it was 1.24 µM; in experiment [5] it was 0.4 µM; in experiment [6] it was 6.84 µM. Moreover, the TGI was 6.87 µM in experiment [7], 3.65 µM in experiment [8] and 0.497 µM in experiment [9].
With `N#CC1=C(N)NC(=S)C(C#N)C12Nc1ccccc1S2` (centres undefined), the GI50 in experiment [1] is 27.1 µM; in [2] it was 27.2 µM; in experiment [3] it was 18.3 µM; in experiment [4], 25.8 µM; in experiment [5], 28.1 µM; in experiment [6], 29.3 µM. Besides, the GI50 is 16.2 µM in experiment [10], 14.3 µM in [7] and 23.1 µM in [9]. For the same compound, the TGI is 77.8 µM in experiment [1]; 65 µM in experiment [2]; 40.2 µM in [3]; over 100 µM in [4]; 73 µM in experiment [5]; 72.5 µM in experiment [6]. Also, the TGI in experiment [10] is 35.6 µM; in experiment [7], 43.7 µM; in experiment [9], 53.1 µM.
As to `Cc1nnc(N=Nc2c(O)[nH]c3ccccc23)[nH]c1=O`, the TGI in experiment [1], in [2], in [3], in [4], in experiment [6] and in experiment [10] was over 100 µM throughout. In addition, the TGI in experiment [7], in experiment [8] and in experiment [9] was over 100 µM each time.
`Nn1nnc2ccccc21`: the TGI in experiment [1], in experiment [2], in experiment [3], in [4], in experiment [5] and in experiment [6] was over 100 µM each time. Further, the TGI in experiment [7], in experiment [8] and in [9] was over 100 µM in each case.
In the case of `O=C(/C(=N/Nc1cn[nH]c(=O)c1Cl)c1ccccc1)c1ccccc1`, the TGI in [1] is over 100 µM; in experiment [2], over 100 µM; in [3], over 100 µM; in experiment [4], over 100 µM; in experiment [5] it was 71.6 µM; in experiment [6], 75.1 µM. Also, the TGI was 77.2 µM in [10], 59.9 µM in experiment [7] and over 100 µM in experiment [9].
In the case of `CC(=O)Oc1ccc2c(c1)O/C(=C\c1ccc(O)cc1)C2=O`, the TGI in experiment [1], in [2], in [3], in [4], in experiment [5] and in experiment [6] was over 100 µM throughout. In addition, the TGI in experiment [10], in experiment [7] and in [9] was over 100 µM each time.
